Laboratory results published in US8809372B2, “Pyridine derivatives” (Endo Pharmaceuticals, Inc., priority 2011, dated 2014).
Read-outs that look alike come from different tables or passages of the source.

Assays:
[1] = tested on: testosterone production in H295R cells; assay: Cell-based functional assay for testosterone production; design: species or system human
Protocol: Cell-Based Functional Assay for Testosterone Production
H295R cells (ATCC Number CRL-2128) were subcultured, seeded (30,000 cells per well in a poly-d lysine plate) and left overnight at 37° C. The next day (after approximately 24 hours), the media were removed and 200 μL fresh media were added. Then, 50 μL of serially diluted compounds was added from a 5× plate. The serial dilution in the 100× plate (in DMSO) and the stamping of a 5× plate (in media) from the 100× plate were carried out using a TECAN liquid handling device. The plate was incubated at 37° C. for 72 hours. After incubation, the media was removed, diluted 5 to 10 times with calibration diluent RD5-48, and the assay performed as per manufacturer's protocol (Parameter Testosterone Assay, Cat. No. KGE010, R&D systems; http://www.mdsystems.com/pdf/KGE010.pdf).

[2] = molecular target: T1, rat CYP17 (rat testicular microsomes) (Rattus norvegicus, UniProt P11715); assay: CYP17 inhibition assay in rat testicular microsomes; format: biochemical
T1 construct: Rat testis tissue was collected and disrupted with 30 strokes of a glass homogenizer; from tissue; host or cells: rat testis (microsomes)
T1 sequence (P11715 1-507): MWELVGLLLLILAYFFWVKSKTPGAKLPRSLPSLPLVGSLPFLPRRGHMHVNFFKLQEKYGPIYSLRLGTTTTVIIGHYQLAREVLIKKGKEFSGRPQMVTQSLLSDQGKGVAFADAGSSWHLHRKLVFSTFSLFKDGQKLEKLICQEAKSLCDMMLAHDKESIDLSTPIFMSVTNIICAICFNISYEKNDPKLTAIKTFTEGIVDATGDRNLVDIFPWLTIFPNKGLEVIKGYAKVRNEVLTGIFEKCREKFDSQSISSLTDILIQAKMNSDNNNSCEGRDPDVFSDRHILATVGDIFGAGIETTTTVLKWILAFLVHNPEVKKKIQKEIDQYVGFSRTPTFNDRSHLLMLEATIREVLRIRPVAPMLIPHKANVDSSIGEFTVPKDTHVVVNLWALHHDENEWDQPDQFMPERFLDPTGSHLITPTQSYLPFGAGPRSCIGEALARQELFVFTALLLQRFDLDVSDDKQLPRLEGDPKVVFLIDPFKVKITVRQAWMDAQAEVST
Outline: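 Rat testicular microsomes (150–160 μg) or yeast microsomes expressing human CYP17 (1.7 pmol) react with ³H-17α-hydroxypregnenolone (1 μCi/reaction) and 325 μM NADPH in potassium phosphate buffer, pH 7.4. Compound is pre-incubated with substrate for 15 min, then the reaction runs 60 min at 37 °C. After chloroform extraction and charcoal treatment, aqueous radioactivity is measured by scintillation counting.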

[3] = Homo sapiens, NCI-H295R, 72 h, read-out: Testosterone (human H295R adrenal cells), H295R cells, 72 hours
[4] = Homo sapiens, NCI-H295R, 72 h, read-out: Testosterone (human H295R adrenal cells)
[5] = read-out: Testosterone (human H295R adrenal cells), H295R cells, 72 hours

| SMILES | IC50 [1, 3] | IC50 [2] | IC50 [1, 4] | IC50 [1, 5] |
| --- | --- | --- | --- | --- |
| COc1ccc(-c2ccc(C(C)(O)c3ccncc3)nc2)cc1 (single isomer, unassigned) [Example 3, 1-(5-(4-methoxyphenyl)-pyridin-2-yl)-1-(pyridin-4-yl)ethanol] | 50 to 200 nM | 50 to 200 nM | – | – |
| CC(O)(c1ccncc1)c1cnc(-c2ccc(F)cc2)s1 (racemic) [Example 7, 1-(2-(4-Fluorophenyl)thiazol-5-yl)-1-(pyridin-4-yl)ethanol] | – | < 50 nM | < 50 nM | – |
| Cn1cc(-c2ccc(C(C)(O)c3ccncc3)s2)ccc1=O (stereo not shown) [Example 15, 5-(5-(1-Hydroxy-1-(pyridin-4-yl)ethyl)thiophen-2-yl)-1-methyl-pyridin-2(1H)-one] | – | < 50 nM | – | – |
| CC(O)(c1ccncc1)c1ncc(-c2ccc(F)cc2)s1 (stereo not shown) [Example 14, 1-(5-(4-Fluorophenyl)thiazol-2-yl)-1-(pyridin-4-yl)ethanol] | – | < 50 nM | – | – |
| COc1ccc(-c2ccc(C(C)(O)c3ccncc3)nc2)cc1 (single isomer, unassigned) [Example 2, 1-(5-(4-methoxyphenyl)-pyridin-2-yl)-1-(pyridin-4-yl)ethanol] | – | < 50 nM | – | 50 to 200 nM |
| CCC(O)(c1ccncc1)c1cnc(-c2ccc(F)cc2)s1 (stereo not shown) [Example 4, 1-(2-(4-fluorophenyl)-thiazol-5-yl)-1-(pyridin-4-yl)propan-1-ol] | < 50 nM | < 50 nM | – | – |
| CC(O)(c1ccncc1)c1cnc(-c2ccc(F)cc2)s1 (single isomer, unassigned) [Example 9, 1-(2-(4-fluorophenyl)thiazol-5-yl)-1-(pyridin-4-yl)ethanol] | – | < 50 nM | – | < 50 nM |
| CC(O)(c1ccncc1)c1cnc(-c2ccc(F)cc2)s1 (single isomer, unassigned) [Example 8, 1-(2-(4-fluorophenyl)thiazol-5-yl)-1-(pyridin-4-yl)ethanol] | 50 to 200 nM | < 50 nM | – | – |
| CC(O)(c1ccncc1)c1nc(-c2ccc(F)cc2)no1 (stereo not shown) [Example 34, 1-(3-(4-Fluorophenyl)-1,2,4-oxadiazol-5-yl)-1-(pyridin-4-yl)ethanol] | – | < 50 nM | – | – |
| CC(O)(c1ccncc1)c1nc(-c2ccc(F)cc2)no1 (single isomer, unassigned; (+)) [Example 36, (+)-1-(3-(4-fluoro-phenyl)-1,2,4-oxadiazol-5-yl)-1-(pyridin-4-yl)ethanol] | – | < 50 nM | – | – |
| Cn1cc(-c2ccc(C(C)(O)c3ccncc3)s2)ccc1=O (single isomer, unassigned; (-)) [Example 17, (−)-5-(5-(1-hydroxy-1-(pyridin-4-yl)ethyl)thiophen-2-yl)-1-methylpyridin-2(1H)-one] | – | < 50 nM | – | – |
| COc1ccc(-c2ccc(C(C)(O)c3ccncc3)nc2)cc1 (racemic) [Example 1, 1-(5-(4-Methoxyphenyl)pyridin-2-yl)-1-(pyridin-4-yl)ethanol] | – | < 50 nM | 50 to 200 nM | – |
